How the values were obtained:
Assay type in all cases: cell-based
[1] = tested on: primary neonatal rat cardiomyocytes; test: Beat frequency of neonatal cardiomyocytes by Fluo-4 calcium measurement
Protocol: The frequency of contraction could be determined in a similar manner with a calcium sensor (Fluo-4). In a laser-scanning microscope, Fluo-4 was excited with an argon laser (488 nm) and the emission signals were detected and collected at a wavelength of 505 nm. The fluorescence intensity represented the intracellular concentration of calcium ions. Usually, the line-scan mode was used for image recording, and the line-scan images were recorded with a speed of 1.54 or 1.92 ms per line along the longitudinal axis of the cell. After the sequential image recording, a two-dimensional image with 512×100 lines or 512×2000 lines was generated and saved for later analysis.
Additional calcium measurements were performed. […] The fluorescence dye Fluo-4 was added after 20 min. Fluo-4 is a calcium sensor, which is used for investigating the calcium increase in cells. In cardiomyocytes the dye serves for examining the contractility. During contraction and relaxation, the calcium concentrations differ in the cytosol of cardiomyocytes. The fluorescence intensity of Fluo-4 increases with an increasing calcium concentration, and a decreasing calcium concentration will cause reduced fluorescence intensity. A frequency could be calculated from the fluo-4 fluorescence oscillation by a time depended analysis, wherein the fluorescence was measured over a period of two hours. The ground state at the moment before application (black), the period 10 to 30 sec after application (dark grey) and 70 to 110 sec after application (light grey) were evaluated (FIG. 5). Application refers to the adding of PE or adrenaline. […] The statistical analysis was performed according to the method of analysis of variance (ANOVA).

3T3 mouse fibroblasts = test: LPA-induced stress fibre formation, TRITC-phalloidin fluorescence; conditions: 3T3 cells, LPA 300 nM 10 min; compound 30 μmol/L 30 min pre-treatment
From the text: For the initial analysis, 3T3 cells were used to evaluate the cellular effects of the compounds of the present invention. In these cells changes in the cytoskeleton caused by GTPase activation are well observable, because the cells have a G protein coupled receptor for LPA. A stimulation of 3T3 cells with LPA leads to an activation of RhoA and thereby to the formation of fibrillar actin filaments (F-actin, stress fibres). The participation of AKAP-Lbc as an exchange factor for RhoA within the signal transduction via a G protein of the G−12/13 family was shown.
3T3 mouse fibroblasts were seeded on 30 mm cover slips (in 6 well plates) in a cell density of 2×10^5 cells/well. […]
Following that, the cells were washed with phosphate buffer (Dulbecco's Phosphate-Buffered Saline++) and fixed in 2.5% paraformaldehyde in sodium cacodylate buffer (100 mmol/L sodium cacodylate, 100 mmol/L sucrose, pH 7.4) for 15 min. […] For the microscopic investigations, images were taken with two different fluorescence channels. […]
Without LPA stimulation no stress fibres could be identified after addition of DMSO instead of the compounds of the invention (FIG. 2A, a). […] The quantification of the stress fibre formation were performed with the software package ImageJ by the determination of the overall fluorescence of the TRITC-phalloidin. […]

[2] = tested on: primary neonatal rat cardiomyocytes; test: Beat rate of neonatal cardiomyocytes counted by light microscope; conditions: for beat rate after PE stimulation: PE 6 h
Protocol: For cultivation of primary neonatal rat cardiomyocytes, hearts of two to three days old rats were obtained and quickly stored on ice in ADS buffer (116.4 mM NaCl, 5.4 mM KC, 5.6 mM dextrose, 10.9 mM NaH2PO4, 405.7 μmol/L MgSO4, 20 mM Hepes, pH 7.3). Under sterile conditions, the hearts were cleaned from blood and vessels, cut into small pieces and transferred into falcon tubes. The ADS buffer was exchanged against an enzyme solution (see table below). Within four cycles each with five ml enzyme solution and an enzyme mix comprising collagenase and pancreatin, isolated cells were released from the tissue (12 min at 37° C. in a water bath with approx. 220 rpm).
The supernatant with the isolated cells was collected, transferred in fetal calf serum (FCS, 2.5 ml on ice) and subsequently centrifugated in FCS (100 g for 3 min at 4° C.). The supernatant of the centrifugation was discarded and the pellet was resuspended in 5 ml cold plating medium. After an additional centrifugation, the pellet was resuspended in 15 ml medium, transferred into a dish and incubated for two hours at 37° C. to allow the settling of the fibroblasts. The cardiomyocytes in the supernatant were counted with a Scepter Handheld Automated Cell Counter and transferred in dishes coated with gelatine. On the following day the medium was changed.
The neonatal cardiomyocytes were seeded in 6-well plates with 1.5×10^6 cell per well. The stimulation with 100 μmol/L phenylephrine (PE) was performed for six or twenty four hours at 37° C. Untreated cells served as control. The effect of compound 31413 on the α-adrenergic stimulation of the cardiomyocytes was determined after incubation with the compound for three hours. To do this, the contraction of the cells was counted within a minute and different conditions were compared.
Isolated neonatal cardiomyocytes were used to investigate the relation between AKAP-Lbc induced RhoA activation and the contractility of the heart. After a chronic stimulation of the α1-adreno receptors (AR) with the specific agonist PE for six hours, the beats of the cardiomyocytes were counted over a period of 15 s and a beat rate per minute (bpm) was calculated. An increase of the beat rate of the cardiomyocytes from 100 bpm to 160 beats per minute could be observed. […] The beat rate of neonatal cardiomyocytes was counted with help of a light microscope.

[3] = Fluo-4, pre-incubation 2.5 μmol/L

## COc1ccc(-c2coc3cc4oc(=O)c(C)c(C)c4cc23)cc1 [Compound 31413, 3-(4-methoxyphenyl)-5,6-dimethyl-furo[3,2-g]chromen-7-one]
[1]
  adrenalin (beta-adrenoceptor)-induced increase in cardiac myocyte beating frequency: does not, however, affect
[1]; [3]
  PE induced increase of beat rate: inhibited only the PE induced increase of beat rate
  adrenaline induced increase of beat rate: not the adrenaline induced one
3T3 mouse fibroblasts
  formation of stress fibres: suppression of the stress fibre formation
[2]; 2.5 μmol/L compound
  beat rate after PE stimulation: normalization of the beat rate
[2]; 25 μmol/L compound
  beat rate after PE stimulation: arrest
[2]; 50 μmol/L compound
  beat rate after PE stimulation: arrest
[2]; at 2.5, 10, 25 and 50 μmol/L
  phenylephrine/alpha-adrenoceptor-induced increase in cardiac myocyte beating frequency: prevents

Reference: patent US20160008339A1, “PSORALEN DERIVATIVES FOR PREVENTING OR TREATING HEART FAILURE OR CARDIAC HYPERTROPHY” (MAX-DELBRUCK-CENTRUM FUR MOLEKULARE MEDIZIN, priority 2012, published 2016)
